Measured values taken from ChEMBL document CHEMBL5543109, “Novel β-Hairpin Antimicrobial Peptide Containing the β-Turn Sequence of -NG- and the Tryptophan Zippers Facilitate Self-Assembly into Nanofibers, Exhibiting Excellent Antimicrobial Performance” (J Med Chem, 2024).
≈ marks a conversion by molar mass, not a printed value. Calls of active or inactive are those of the source. The calls are words filed in the database; no cut-off is given here.

Legend:
Staphylococcus aureus [1] = test: Additive antibacterial activity against Staphylococcus aureus 125 assessed as fractional inhibitory concentration index incubated for 18 hrs in presence of streptomycin by checkerboard assay; type: functional
Bacillus subtilis [2] = test: Bactericidal activity against Bacillus subtilis ATCC 23857 incubated for 18 hrs by broth microdilution method; type: functional
Cell membrane [3] = test: Induction of inner membrane permeabilization in Escherichia coli ML-35 […] measured every 5 mins for 120 mins by ONPG dye based assay; type: cell membranes
Staphylococcus aureus [4] = test: Induction of morphological change in Staphylococcus aureus assessed as bacterial collapse at 2 times MIC incubated for 30 mins by SEM analysis; type: functional, organism-based
Staphylococcus aureus [5] = test: Antibacterial activity against methicillin resistant Staphylococcus aureus 75 incubated for 18 hrs by broth microdilution method; type: functional
Staphylococcus aureus [6] = test: Additive antibacterial activity against methicillin resistant Staphylococcus aureus 113 assessed as fractional inhibitory concentration index incubated for 18 hrs in presence of streptomycin by checkerboard assay; type: functional
Staphylococcus aureus [7] = test: Additive antibacterial activity against methicillin resistant Staphylococcus aureus 75 assessed as fractional inhibitory concentration index incubated for 18 hrs in presence of streptomycin by checkerboard assay; type: functional
Cell membrane [8] = test: Induction of inner membrane permeabilization in Escherichia coli ML-35 at 1 to 4 times MIC measured every 5 mins for 120 mins by ONPG dye based assay; type: cell membranes
[9] = Elimination half life in Sprague-Dawley rat at 1 mg/kg, iv measured upto 120 mins by LC-MS analysis; type: ADME, organism-based; settings: in vivo, read-out: beta t1/2
Staphylococcus aureus [10] = test: Additive antibacterial activity against Staphylococcus aureus 125 assessed as fractional inhibitory concentration index incubated for 18 hrs in presence of kanamycin by checkerboard assay; type: functional
Staphylococcus aureus [11] = test: Antibacterial activity against Staphylococcus aureus S125 incubated for 18 hrs by broth microdilution method; type: functional
Escherichia coli [12] = test: Synergistic antibacterial activity against kanamycin resistant Escherichia coli assessed as fractional inhibitory concentration index incubated for 18 hrs in presence of gentamycin by checkerboard assay; type: functional
Staphylococcus aureus [13] = test: Synergistic antibacterial activity against Staphylococcus aureus 794 assessed as fractional inhibitory concentration index incubated for 18 hrs in presence of rifampin by checkerboard assay; type: functional
Klebsiella pneumoniae [14] = test: Additive antibacterial activity against Klebsiella pneumoniae assessed as fractional inhibitory concentration index incubated for 18 hrs in presence of kanamycin by checkerboard assay; type: functional
Escherichia coli [15] = test: Synergistic antibacterial activity against kanamycin resistant Escherichia coli assessed as fractional inhibitory concentration index incubated for 18 hrs in presence of cefotaxime by checkerboard assay; type: functional
Escherichia coli [16] = test: Antibacterial activity against kanamycin resistant Escherichia coli incubated for 18 hrs by broth microdilution method; type: functional
Escherichia coli [17] = test: Antibacterial activity against Escherichia coli at 2 times MIC preincubated with 256 ug/ml LPS for 1 hr followed by bacterial addition and measured after 5 hrs; type: functional, organism-based; settings: time 6.0 hrs
Staphylococcus aureus [18] = test: Antibacterial activity against methicillin resistant Staphylococcus aureus incubated for 18 hrs by broth microdilution method; type: functional
[19] = Stability in mouse serum assessed as half-life measured upto 48 hrs by RP-HPLC analysis; type: ADME, cell-free
[20] = Acute toxicity in mouse assessed as mortality rate at 200 mg/kg, ip by karber method; type: organism-based; settings: in vivo, read-out: Activity
Cell membrane [21] = test: Induction of cell membrane disruption in Escherichia coli assessed as PI uptake at 2 times MIC incubated for 2 hrs by PI staining based flow cytometry analysis (reference value: 11.9%); type: cell membranes
Staphylococcus aureus [22] = test: Synergistic antibacterial activity against rifampicin resistant Staphylococcus aureus assessed as fractional inhibitory concentration index incubated for 18 hrs in presence of rifampin by checkerboard assay; type: functional
Staphylococcus aureus [23] = test: Additive antibacterial activity against Staphylococcus aureus 125 assessed as fractional inhibitory concentration index incubated for 18 hrs in presence of gentamycin by checkerboard assay; type: functional
Staphylococcus aureus [24] = test: Additive antibacterial activity against Staphylococcus aureus assessed as fractional inhibitory concentration index incubated for 18 hrs in presence of bacitracin by checkerboard assay; type: functional
Staphylococcus aureus [25] = test: Synergistic antibacterial activity against Staphylococcus aureus 794 assessed as fractional inhibitory concentration index incubated for 18 hrs in presence of cefotaxime by checkerboard assay; type: functional
[26] = Toxicity in BALB/c mouse infected with Staphylococcus aureus 794 assessed as hyperkeratosis at 1 mg/ml, ip pre-infected with bacteria for 24 hrs followed by compound addition and measured after 13 days by H and E staining based histopathological analysis; type: organism-based; settings: in vivo, 312 h, time 13 day
Staphylococcus aureus [27] = test: Additive antibacterial activity against Staphylococcus aureus 125 assessed as fractional inhibitory concentration index incubated for 18 hrs in presence of ciprofloxacin by checkerboard assay; type: functional
Staphylococcus aureus [28] = test: Synergistic antibacterial activity against kanamycin resistant Staphylococcus aureus assessed as fractional inhibitory concentration index incubated for 18 hrs in presence of rifampin by checkerboard assay; type: functional
Bacillus subtilis [29] = test: Antibacterial activity against Bacillus subtilis ATCC 23857 incubated for 18 hrs by broth microdilution method; type: functional
Staphylococcus aureus [30] = test: Additive antibacterial activity against Staphylococcus aureus 125 assessed as fractional inhibitory concentration index incubated for 18 hrs in presence of cefotaxime by checkerboard assay; type: functional
Staphylococcus aureus [31] = test: Synergistic antibacterial activity against methicillin resistant Staphylococcus aureus 113 assessed as fractional inhibitory concentration index incubated for 18 hrs in presence of bacitracin by checkerboard assay; type: functional
Staphylococcus aureus [32] = test: Antibacterial activity against Staphylococcus aureus 794 infected in BALB/c mouse skin wound infection model assessed as reduction in wound area at 1 mg/ml, ip pre-infected with bacteria for 24 hrs followed by compound addition and measured on day 5; type: functional, organism-based; settings: time 5.0 day
Staphylococcus aureus [33] = test: Antibacterial activity against Staphylococcus aureus 794 infected in BALB/c mouse skin wound infection model assessed as wound healing at 1 mg/ml, ip pre-infected with bacteria for 24 hrs followed by compound addition and measured on day 11; type: functional; settings: time 11 day
Klebsiella pneumoniae [34] = test: Antibacterial activity against Klebsiella pneumoniae ATCC 700603 incubated for 18 hrs by broth microdilution method; type: functional
Klebsiella pneumoniae [35] = test: Synergistic antibacterial activity against Klebsiella pneumoniae assessed as fractional inhibitory concentration index incubated for 18 hrs in presence of rifampin by checkerboard assay; type: functional
Klebsiella pneumoniae [36] = test: Bactericidal activity against Klebsiella pneumoniae ATCC 700603 incubated for 18 hrs by broth microdilution method; type: functional
Cell membrane [37] = test: Induction of outer membrane permeabilization in Escherichia coli at 4 times MIC measured immediately by NPN-dye based assay; type: cell membranes
Cell membrane [38] = test: Induction of cell membrane disruption in Escherichia coli assessed as PI uptake incubated for 2 hrs by PI staining based confocal laser scanning microscopy; type: cell membranes
[39] = Acute toxicity in mouse assessed as inflammatory cell infiltration in lung at 230.5 mg/kg, ip by H and E staining based assay; type: organism-based; settings: in vivo
Cell membrane [40] = test: Induction of outer membrane permeabilization in Escherichia coli at 1/2 MIC measured immediately by NPN-dye based assay; type: cell membranes
[41] = Toxicity in BALB/c mouse infected with Staphylococcus aureus 794 assessed as increase in number of sweat glands at 1 mg/ml, ip pre-infected with bacteria for 24 hrs followed by compound addition and measured after 13 days by H and E staining based histopathological analysis; type: organism-based; settings: in vivo, 312 h, time 13 day
Cell membrane [42] = test: Induction of outer membrane permeabilization in Escherichia coli within 1 min by NPN-dye based assay; type: cell membranes

With `NCCCC[C@@H](NC(=O)[C@H](N)Cc1c[nH]c2ccccc12)C(=O)N[C@H](Cc1c[nH]c2ccccc12)C(=O)N[C@H](CCCCN)C(=O)N[C@H](Cc1c[nH]c2ccccc12)C(=O)N[C@@H](CC(N)=O)C(=O)NCC(=O)N[C@H](Cc1c[nH]c2ccccc12)C(=O)N[C@H](CCCCN)C(=O)N[C@H](Cc1c[nH]c2ccccc12)C(=O)N[C@H](CCCCN)C(=O)N[C@H](Cc1c[nH]c2ccccc12)C(N)=O` the “fractional inhibitory concentration index (FICI)” value (Staphylococcus aureus [1]) was 1, the MBC (Bacillus subtilis [2]) was 4 µM (≈ 7.27 µg/mL) and the Activity (Cell membrane [3]) was “Dose-Dependent Effect”. The Activity (Staphylococcus aureus [4]) was “Active”, the MIC (Staphylococcus aureus [5]) was 8 µM (≈ 14.5 µg/mL) and the “fractional inhibitory concentration index (FICI)” value (Staphylococcus aureus [6]) was 0.563. The “fractional inhibitory concentration index (FICI)” value (Staphylococcus aureus [7]) was 0.75, the Activity (Cell membrane [8]) was “Active” and the half-life [9] was 11.4 min. For the same compound, the “fractional inhibitory concentration index (FICI)” value (Staphylococcus aureus [10]) was 0.563, the MIC (Staphylococcus aureus [11]) was 8 µM (≈ 14.5 µg/mL) and the “fractional inhibitory concentration index (FICI)” value (Escherichia coli [12]) was 0.188. For the same compound, the “fractional inhibitory concentration index (FICI)” value (Staphylococcus aureus [13]) was 0.188, the “fractional inhibitory concentration index (FICI)” value (Klebsiella pneumoniae [14]) was 0.563 and the “fractional inhibitory concentration index (FICI)” value (Escherichia coli [15]) was 0.375. For the same compound, the MIC (Escherichia coli [16]) was 16 µM (≈ 29.1 µg/mL), the Activity (Escherichia coli [17]) was “inactive” and the MIC (Staphylococcus aureus [18]) was 8 µM (≈ 14.5 µg/mL). For the same compound, the half-life [19] was > 48 h, the mortality [20] was 20% and the Activity (Cell membrane [21]) was 86.2%. For the same compound, the “fractional inhibitory concentration index (FICI)” value (Staphylococcus aureus [22]) was 0.375, the “fractional inhibitory concentration index (FICI)” value (Staphylococcus aureus [23]) was 0.563 and the “fractional inhibitory concentration index (FICI)” value (Staphylococcus aureus [24]) was 0.563. For the same compound, the “fractional inhibitory concentration index (FICI)” value (Staphylococcus aureus [25]) was 0.313, the Activity [26] was “Non-Toxic” and the “fractional inhibitory concentration index (FICI)” value (Staphylococcus aureus [27]) was 1. For the same compound, the “fractional inhibitory concentration index (FICI)” value (Staphylococcus aureus [28]) was 0.313, the MIC (Bacillus subtilis [29]) was 2 µM (≈ 3.64 µg/mL) and the “fractional inhibitory concentration index (FICI)” value (Staphylococcus aureus [30]) was 0.75. The “fractional inhibitory concentration index (FICI)” value (Staphylococcus aureus [31]) was 0.5, the Activity (Staphylococcus aureus [32]) was “Active” and the Activity (Staphylococcus aureus [33]) was 100%. The MIC (Klebsiella pneumoniae [34]) was 8 µM (≈ 14.5 µg/mL), the “fractional inhibitory concentration index (FICI)” value (Klebsiella pneumoniae [35]) was 0.5 and the MBC (Klebsiella pneumoniae [36]) was 8 µM (≈ 14.5 µg/mL). For the same compound, the Activity (Cell membrane [37]) was 100%, the Activity (Cell membrane [38]) was “Dose-Dependent Effect” and the Activity [39] was “Toxic”. For the same compound, the Activity (Cell membrane [40]) was 40%, the Activity [41] was “Toxic” and the Activity (Cell membrane [42]) was “Dose-Dependent Effect”.
